From ChEMBL document CHEMBL1201862, “PubChem BioAssay data set” (2004) come the findings set out here.

For experiment [1], the target named is T1, Zinc finger protein mex-5 (Caenorhabditis elegans, UniProt Q9XUB2).
T1 sequence (Q9XUB2 whole entry): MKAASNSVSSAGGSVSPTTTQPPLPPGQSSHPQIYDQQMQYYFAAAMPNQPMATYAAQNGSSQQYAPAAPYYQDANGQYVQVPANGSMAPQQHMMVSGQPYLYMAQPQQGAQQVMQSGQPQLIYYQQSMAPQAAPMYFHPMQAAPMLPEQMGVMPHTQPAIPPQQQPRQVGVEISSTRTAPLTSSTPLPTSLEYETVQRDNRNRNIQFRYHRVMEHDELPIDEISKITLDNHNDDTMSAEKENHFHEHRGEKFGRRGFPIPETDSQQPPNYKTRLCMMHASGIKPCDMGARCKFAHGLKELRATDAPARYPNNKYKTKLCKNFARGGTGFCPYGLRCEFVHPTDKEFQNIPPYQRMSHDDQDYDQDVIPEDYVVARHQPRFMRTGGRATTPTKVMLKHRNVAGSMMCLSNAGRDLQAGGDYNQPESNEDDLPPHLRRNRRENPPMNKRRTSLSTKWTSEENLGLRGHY
The experiment can be described thus: potency of MEX-5 RNA-binding blockers – biochemical, C. elegans, fluorescence polarization, dose response (AID 1960).

The subject of experiment [2] is Streptococcus sp. 'group A'. The experiment can be described thus: Streptococcus pyogenes SK(-)GAS viability under kanamycin – luminescence, BacTiterGlo, confirmation, counter-screen for streptokinase expression inhibitor project, dose response (AID 1900). It is filed as functional, organism-based. (A counterscreen serves to expose hits that act by an unwanted route or on another target.)

The target in another experiment is Nonstructural protein 1 (Influenza A virus, UniProt Q194T2). The class given is functional, Influenza A virus (A/California/07/2009(H1N1)).
Experiment [3] can be described thus: Luminescence Cell-Based Dose Response HTS to Identify Inhibitors of 5'UTR Stem-Loop Driven Prion Protein mRNA Translation in H4 Neuroglioblastoma Cells. [Related pubchem assays: 1827 (Project Summary), 1813 (Primary HTS)]. The class given is functional.
Experiment [4] can be described thus: cAMP pathway inhibition in counterscreen cell line – TR-FRET cAMP detection, counter-screen for MC4R biased antagonist project, dose response (AID 602305).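 Note: U2OS cells stimulated with forskolin near its EC80 as the cAMP inducer; potency is for inhibition of forskolin-stimulated cAMP signaling.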 The class given is functional, cell-based.
The target of experiment [5] is G-protein coupled receptor 35 (Homo sapiens, UniProt Q9HC97). The experiment can be described thus: inhibition of zaprinast-stimulated GPR35 beta-arrestin translocation – imaging, U2OS, beta-arrestin-GFP, zaprinast agonist, primary screen (AID 2058).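 Note: antagonist potency meaning inhibition of agonist-induced arrestin redistribution.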 It is filed as functional.
The nature of experiment [6]: reduction of Shn3 3'UTR-driven luciferase in osteoblasts – cell-based, Clone20 osteoblasts, firefly luciferase, cherry-picked, dose response (AID 624132).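 Note: firefly luciferase luminescence from reporter carrying the Shn3 3'UTR in osteoblasts.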 The class given is functional.
The nature of experiment [7]: non-specific 3'UTR reporter inhibition in Clone20-Shn3RL – cell-based, Renilla luciferase, cherry-picked, counter-screen for Shn3 inhibitor project, dose response (AID 624133). It is filed as functional.
The next experiment deals with CHO. Nature of the experiment: CHO cell viability loss, potency – luminescence, cytotoxicity control for TLR9-MyD88 binding inhibitor project, dose response (AID 588339).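 Note: CHO cells stably coexpressing TLR9 and MyD88 fusions from primary screen; compound exposure lasted 48 hours before viability readout.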 It is filed as functional, cell-based, hamster. To be noted: Cricetulus griseus.
The target in experiment [8] is T2, Type-1 angiotensin II receptor (Homo sapiens, UniProt P30556).
T2 sequence (P30556 whole entry): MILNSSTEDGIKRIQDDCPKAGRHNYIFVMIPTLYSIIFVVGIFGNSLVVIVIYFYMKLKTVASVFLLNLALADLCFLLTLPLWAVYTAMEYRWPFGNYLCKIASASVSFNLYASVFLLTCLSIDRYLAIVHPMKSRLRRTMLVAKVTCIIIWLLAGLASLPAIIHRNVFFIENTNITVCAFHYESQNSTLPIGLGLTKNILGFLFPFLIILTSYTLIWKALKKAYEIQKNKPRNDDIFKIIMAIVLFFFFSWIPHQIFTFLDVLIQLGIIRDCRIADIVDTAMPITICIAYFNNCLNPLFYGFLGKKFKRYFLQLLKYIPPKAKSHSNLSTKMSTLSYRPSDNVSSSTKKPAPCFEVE
Nature of the experiment: antagonism of angiotensin II type 1 receptor – cell-based, uHTS hits, selectivity assay for APJ receptor antagonist project, dose response (AID 463214).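 Note: antagonist potency against angiotensin II stimulated AT1 response.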 It is filed as functional.

For a further experiment, the target named is Fatty acid synthase (Homo sapiens, UniProt P49327). The experiment can be described thus: inhibition of human FAS-TE enzyme activity – biochemical, endpoint fluorescence intensity, uHTS hits, dose response (AID 624327).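 Note: fluorescence from hydrolysis of an O-methyl fluorescein acyl ester substrate by the enzyme.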 It is filed as functional.
Experiment [9] can be described thus: alpha-synuclein stem-loop luciferase translation blockers – H4 neuroglioma cells, luminescence, confirmation (AID 1988). The class given is functional, cell-based.
Experiment [10] in a line: loss of viability in HepG2 cells – cell-based, CellTiter-Glo, cherry-picked, cytotoxicity control for Shn3 inhibitor project, dose response (AID 624134). The class given is functional. For orientation: In ATP-based viability assays light output follows the ATP content of the culture.

Calls of active or inactive are those of the source.

Fatty acid synthase, sequence (P49327 whole entry): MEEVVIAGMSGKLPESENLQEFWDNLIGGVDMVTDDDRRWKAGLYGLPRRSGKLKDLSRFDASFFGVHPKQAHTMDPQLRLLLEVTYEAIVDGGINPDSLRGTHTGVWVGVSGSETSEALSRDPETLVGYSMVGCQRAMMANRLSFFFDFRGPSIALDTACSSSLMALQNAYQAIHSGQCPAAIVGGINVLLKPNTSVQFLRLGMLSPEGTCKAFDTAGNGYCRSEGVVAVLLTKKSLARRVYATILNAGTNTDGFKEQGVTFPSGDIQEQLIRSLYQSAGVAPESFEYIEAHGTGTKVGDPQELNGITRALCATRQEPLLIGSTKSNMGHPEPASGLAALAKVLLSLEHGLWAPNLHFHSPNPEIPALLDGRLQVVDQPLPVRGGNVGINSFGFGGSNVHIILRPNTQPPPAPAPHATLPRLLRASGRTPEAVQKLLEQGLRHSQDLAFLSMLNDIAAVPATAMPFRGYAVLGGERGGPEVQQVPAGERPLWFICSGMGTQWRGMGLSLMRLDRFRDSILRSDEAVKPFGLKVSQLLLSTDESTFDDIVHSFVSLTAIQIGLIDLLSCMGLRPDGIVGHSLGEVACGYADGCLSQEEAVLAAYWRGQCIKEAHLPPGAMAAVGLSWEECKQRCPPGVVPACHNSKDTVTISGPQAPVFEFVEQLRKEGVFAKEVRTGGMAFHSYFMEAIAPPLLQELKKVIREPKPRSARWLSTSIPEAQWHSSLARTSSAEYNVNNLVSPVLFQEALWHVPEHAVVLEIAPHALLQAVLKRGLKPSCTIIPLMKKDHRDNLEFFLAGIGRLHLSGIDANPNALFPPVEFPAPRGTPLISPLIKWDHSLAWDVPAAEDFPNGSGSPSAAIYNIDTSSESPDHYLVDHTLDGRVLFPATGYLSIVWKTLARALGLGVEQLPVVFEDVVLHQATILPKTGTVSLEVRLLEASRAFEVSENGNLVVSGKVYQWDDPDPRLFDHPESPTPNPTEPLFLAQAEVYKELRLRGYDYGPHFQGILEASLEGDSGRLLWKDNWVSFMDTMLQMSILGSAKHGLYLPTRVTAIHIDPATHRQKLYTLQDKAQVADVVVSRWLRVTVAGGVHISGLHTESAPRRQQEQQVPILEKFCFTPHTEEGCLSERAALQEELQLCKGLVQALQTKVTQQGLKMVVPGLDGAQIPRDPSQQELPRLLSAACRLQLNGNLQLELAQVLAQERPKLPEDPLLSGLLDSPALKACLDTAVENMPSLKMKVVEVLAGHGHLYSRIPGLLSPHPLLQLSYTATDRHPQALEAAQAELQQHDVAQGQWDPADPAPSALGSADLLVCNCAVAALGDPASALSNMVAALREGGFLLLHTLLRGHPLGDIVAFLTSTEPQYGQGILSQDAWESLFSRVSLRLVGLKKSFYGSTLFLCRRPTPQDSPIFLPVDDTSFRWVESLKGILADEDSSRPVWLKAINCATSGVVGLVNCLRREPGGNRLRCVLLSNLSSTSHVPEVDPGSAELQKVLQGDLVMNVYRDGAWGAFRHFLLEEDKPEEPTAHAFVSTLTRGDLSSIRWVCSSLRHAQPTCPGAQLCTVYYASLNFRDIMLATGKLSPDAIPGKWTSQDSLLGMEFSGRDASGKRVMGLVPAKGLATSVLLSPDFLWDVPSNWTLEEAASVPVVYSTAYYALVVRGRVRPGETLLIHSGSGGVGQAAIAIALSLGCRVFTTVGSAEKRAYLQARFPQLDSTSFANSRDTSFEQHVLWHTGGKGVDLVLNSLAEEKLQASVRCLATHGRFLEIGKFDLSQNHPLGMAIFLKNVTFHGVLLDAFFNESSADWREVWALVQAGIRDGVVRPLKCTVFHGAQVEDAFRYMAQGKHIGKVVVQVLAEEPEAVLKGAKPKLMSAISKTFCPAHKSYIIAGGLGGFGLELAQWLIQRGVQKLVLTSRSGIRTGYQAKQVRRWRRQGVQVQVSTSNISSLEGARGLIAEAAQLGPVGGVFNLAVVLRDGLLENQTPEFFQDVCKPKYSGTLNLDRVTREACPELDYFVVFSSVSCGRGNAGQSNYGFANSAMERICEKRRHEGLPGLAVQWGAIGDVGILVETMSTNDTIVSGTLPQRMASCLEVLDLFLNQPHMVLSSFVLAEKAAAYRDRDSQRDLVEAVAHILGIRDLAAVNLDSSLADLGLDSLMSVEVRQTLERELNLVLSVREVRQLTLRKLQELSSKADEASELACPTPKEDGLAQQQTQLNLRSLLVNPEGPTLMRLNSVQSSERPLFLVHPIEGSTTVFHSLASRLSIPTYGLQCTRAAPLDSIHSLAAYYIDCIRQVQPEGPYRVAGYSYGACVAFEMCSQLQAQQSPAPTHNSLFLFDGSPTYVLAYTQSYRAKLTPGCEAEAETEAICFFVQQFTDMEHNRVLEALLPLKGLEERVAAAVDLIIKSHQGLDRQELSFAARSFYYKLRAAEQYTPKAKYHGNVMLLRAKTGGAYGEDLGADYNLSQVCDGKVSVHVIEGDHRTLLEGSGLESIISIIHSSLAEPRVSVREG
Nonstructural protein 1, sequence (Q194T2 whole entry): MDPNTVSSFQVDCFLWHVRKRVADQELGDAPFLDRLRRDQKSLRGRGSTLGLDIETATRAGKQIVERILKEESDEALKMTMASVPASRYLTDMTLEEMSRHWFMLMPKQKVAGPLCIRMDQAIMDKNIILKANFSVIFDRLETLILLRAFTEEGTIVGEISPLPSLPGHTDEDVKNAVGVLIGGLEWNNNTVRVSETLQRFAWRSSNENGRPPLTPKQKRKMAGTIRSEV
G-protein coupled receptor 35, sequence (Q9HC97 whole entry): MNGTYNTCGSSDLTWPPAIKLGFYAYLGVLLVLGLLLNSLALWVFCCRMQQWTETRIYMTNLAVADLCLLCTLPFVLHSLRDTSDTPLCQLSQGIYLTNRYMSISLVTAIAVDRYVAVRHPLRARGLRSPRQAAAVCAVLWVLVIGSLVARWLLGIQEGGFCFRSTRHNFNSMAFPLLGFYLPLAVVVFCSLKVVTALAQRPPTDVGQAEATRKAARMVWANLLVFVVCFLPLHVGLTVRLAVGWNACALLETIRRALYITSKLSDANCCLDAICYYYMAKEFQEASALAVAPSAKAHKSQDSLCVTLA

The term EC50 denotes the concentration needed to bring the measured effect to its halfway point. On to `CCCC[n+]1ccn(C2=C([N-]S(=O)(=O)c3ccc(Cl)cc3)C(=O)c3ccccc3C2=O)c1`, for which, in experiment [1], the EC50 was 85.9 µM (inconclusive).

One may read the IC50 as the concentration that inhibits the measured activity by half. In the case of `CC(=O)c1cccc2c1N=C(c1[nH]c3ccccc3c1O)C2=O`, in experiment [2], the EC50 was 3.8 µM (active). The IC50 on Nonstructural protein 1 is 13.9 µM (active).

One may read the AC50 as the concentration at which the activity in the assay is half-maximal. Consider `CCC1CCCCN1S(=O)(=O)c1ccc(NC(=O)c2nc(S(C)(=O)=O)ncc2Cl)cc1` (stereo not drawn), for which the values for the EC50 in experiment [3] and in experiment [9] were 11.8 µM (active) and 9.69 µM (active), respectively. Moreover, the IC50 is > 64.6 µM (inactive) in experiment [4]; 3.23 µM (active) in experiment [5]; 1.91 µM (active) in the experiment with CHO; 5.9 µM (active) in [8]; 5.75 µM (active) at Fatty acid synthase. The half-maximal activity concentration (AC50) in experiment [6] is 0.341 µM (active); in [7], 2.46 µM (active); in experiment [10], 17 µM (active).
